These results are taken from patent publication US20170037028A1 (BAYER PHARMA AKTIENGESELLSCHAFT, priority 2013, published 2017).

This assay concerns the target T1, GLUT1 (Homo sapiens, UniProt P11166).
T1 sequence (P11166 1-492): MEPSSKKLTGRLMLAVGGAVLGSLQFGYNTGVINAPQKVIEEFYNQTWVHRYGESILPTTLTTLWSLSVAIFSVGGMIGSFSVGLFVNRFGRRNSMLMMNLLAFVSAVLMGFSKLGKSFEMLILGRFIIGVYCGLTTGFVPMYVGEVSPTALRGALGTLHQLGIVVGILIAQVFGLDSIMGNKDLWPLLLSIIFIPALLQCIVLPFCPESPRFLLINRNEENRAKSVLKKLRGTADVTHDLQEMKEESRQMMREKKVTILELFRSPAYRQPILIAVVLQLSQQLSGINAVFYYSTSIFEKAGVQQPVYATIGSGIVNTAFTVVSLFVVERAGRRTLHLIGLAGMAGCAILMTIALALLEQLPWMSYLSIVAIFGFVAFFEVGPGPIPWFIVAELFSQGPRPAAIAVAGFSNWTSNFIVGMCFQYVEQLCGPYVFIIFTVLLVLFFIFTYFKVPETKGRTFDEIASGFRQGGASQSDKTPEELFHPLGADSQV
In words: Indirect measurement of GLUT1 activity by quantification of intracellular ATP levels (glucose induced ATP increase). Type of assay: cell-based. The arrangement: endogenous in cells; host or cells: DLD1 or CHO-K1. As to conditions: read-out: IC50 regarding glucose induced ATP increase (GLUT1 inhibition). An outline of the steps: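 DLD1 or CHO-K1 cells were starved overnight in glucose-free medium with 1% FCS, then combined with an oxidative phosphorylation inhibitor. GLUT1 activity was read as glucose-induced ATP increase, GLUT2 as fructose-induced. Intracellular ATP was quantified by CellTiter-Glo luminescence.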
For the compound `Cc1nn(Cc2ccc(C#N)cc2F)c(C)c1NC(=O)c1cc(C(N)=O)nc2cc(F)c(F)cc12` [Example 298, N^4-[1-(4-cyano-2-fluorobenzyl)-3,5-dimethyl-1H-pyrazol-4-yl]-6,7-difluoroquinoline-2,4-dicarboxamide], the IC50 was 1 nM.
Regarding `Cc1nn(Cc2ccc(C#N)cc2F)c(C)c1NC(=O)c1cc(C(N)=O)nc2ccc(Br)cc12` [Example 299, 6-bromo-N^4-[1-(4-cyano-2-fluorobenzyl)-3,5-dimethyl-1H-pyrazol-4-yl]quinoline-2,4-dicarboxamide], the half-inhibitory concentration (IC50) turned out to be 6.8 nM.
As to `Cc1nn(Cc2ccc(C#N)cc2F)c(C)c1NC(=O)c1cc(C(N)=O)nc2cc(F)ccc12` [Example 300, N^4-[1-(4-cyano-2-fluorobenzyl)-3,5-dimethyl-1H-pyrazol-4-yl]-7-fluoroquinoline-2,4-dicarboxamide], the half-inhibitory concentration (IC50) amounted to 0.5 nM.
The value for `Cc1nn(Cc2ccc(C#N)cc2F)c(C)c1NC(=O)c1cc(C(N)=O)nc2cccc(F)c12` [Example 301, N^4-[1-(4-cyano-2-fluorobenzyl)-3,5-dimethyl-1H-pyrazol-4-yl]-5-fluoroquinoline-2,4-dicarboxamide] was 0.5 nM; that for `Cc1c(NC(=O)c2cc(C(N)=O)nc3ccccc23)c(C(F)(F)F)nn1Cc1ccc(C#N)cc1F` [Example 302, N^4-[1-(4-cyano-2-fluorobenzyl)-5-methyl-3-(trifluoromethyl)-1H-pyrazol-4-yl]quinoline-2,4-dicarboxamide] was 1.1 nM; that for `Cc1c(NC(=O)c2cc(C(N)=O)nc3cc(F)c(Cl)cc23)c(C(F)(F)F)nn1Cc1ccc(C#N)cc1F` [Example 303, 6-chloro-N^4-[1-(4-cyano-2-fluorobenzyl)-5-methyl-3-(trifluoromethyl)-1H-pyrazol-4-yl]-7-fluoroquinoline-2,4-dicarboxamide] was 1.8 nM.
In the case of `Cc1c(NC(=O)c2cc(C(N)=O)nc3cc(F)c(F)cc23)c(C(F)(F)F)nn1Cc1ccc(C#N)cc1F` [Example 304, N^4-[1-(4-cyano-2-fluorobenzyl)-5-methyl-3-(trifluoromethyl)-1H-pyrazol-4-yl]-6,7-difluoroquinoline-2,4-dicarboxamide], the IC50 was found to be 3.6 nM.
The same measure for `Cc1c(NC(=O)c2cc(C(N)=O)nc3ccc(Br)cc23)c(C(F)(F)F)nn1Cc1ccc(C#N)cc1F` [Example 305, 6-bromo-N^4-[1-(4-cyano-2-fluorobenzyl)-5-methyl-3-(trifluoromethyl)-1H-pyrazol-4-yl]quinoline-2,4-dicarboxamide]: 1.4 nM; for `Cc1c(NC(=O)c2cc(C(N)=O)nc3cccc(F)c23)c(C(F)(F)F)nn1Cc1ccc(C#N)cc1F` [Example 306, N^4-[1-(4-cyano-2-fluorobenzyl)-5-methyl-3-(trifluoromethyl)-1H-pyrazol-4-yl]-5-fluoroquinoline-2,4-dicarboxamide]: 4.7 nM.
For the compound `Cc1c(NC(=O)c2cc(C(N)=O)nc3cc(F)c(Cl)cc23)c(C#N)nn1Cc1ccc(F)cc1` [Example 307, 6-chloro-N^4-[3-cyano-1-(4-fluorobenzyl)-5-methyl-1H-pyrazol-4-yl]-7-fluoroquinoline-2,4-dicarboxamide], the half-inhibitory concentration (IC50) was 5.1 nM.
With `Cc1c(NC(=O)c2cc(C(N)=O)nc3ccccc23)c(C#N)nn1Cc1ccc(F)cc1` [Example 308, N^4-[3-cyano-1-(4-fluorobenzyl)-5-methyl-1H-pyrazol-4-yl]quinoline-2,4-dicarboxamide], the IC50 is 2.7 nM.
The same measure for `CCc1nn(Cc2ccc(C#N)cc2)c(CC)c1NC(=O)c1cc(C(F)(F)F)nc2ccc(Br)cc12` [Example 309, 6-bromo-N-[1-(4-cyanobenzyl)-3,5-diethyl-1H-pyrazol-4-yl]-2-(trifluoromethyl)quinoline-4-carboxamide]: 363 nM; for `CCc1nn(Cc2ccc(C#N)cc2)c(CC)c1NC(=O)c1cc(C(N)=O)nc2ccccc12` [Example 310, N^4-[1-(4-cyanobenzyl)-3,5-diethyl-1H-pyrazol-4-yl]quinoline-2,4-dicarboxamide]: 47.2 nM.
